Each compound was assayed against T1, human 11βHSD1 enzyme (Homo sapiens, UniProt P28845) (assay: 11βHSD1 cortisone to cortisol conversion, competitive HTRF assay). Conditions: human 11-βHSD; test concentration of 30 μM of compound.
T1 construct: baculovirus expressed N terminal 6-His tagged full length human 11βHSD1 enzyme; 6-His (N); made in house
T1 sequence (P28845 whole entry): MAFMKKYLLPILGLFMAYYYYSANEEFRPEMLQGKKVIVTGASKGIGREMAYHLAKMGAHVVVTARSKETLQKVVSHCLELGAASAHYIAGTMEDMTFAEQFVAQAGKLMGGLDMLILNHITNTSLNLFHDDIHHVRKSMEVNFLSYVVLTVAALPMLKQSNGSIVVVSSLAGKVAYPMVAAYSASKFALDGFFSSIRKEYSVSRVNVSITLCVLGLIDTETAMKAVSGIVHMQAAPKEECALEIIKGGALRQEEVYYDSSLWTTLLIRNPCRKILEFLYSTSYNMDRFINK
Format: biochemical
Description: The evaluation of compounds described herein was carried out using a baculovirus expressed N terminal 6-His tagged full length human 11βHSD1 enzyme(*1). The enzyme was purified from a detergent solubilised cell lysate, using a copper chelate column. Inhibitors of 11βHSD1 reduce the conversion of cortisone to cortisol, which is identified by an increase in signal, in the above assay.
Compounds to be tested were dissolved in dimethyl sulphoxide (DMSO) to 10 mM and diluted further in assay buffer containing 1% DMSO to 10 fold the final assay concentration. Diluted compounds were then plated into black 384 well plates (Matrix, Hudson N.H., USA).
Fluorescence at 665 nm and 620 nm was measured and the 665 nm:620 nm ratio calculated using an Envision plate reader.
Compound `CCCSc1nc(N2CCC[C@@H](CC(=O)O)C2)ncc1C(=O)NC1CCCCC1` [Example 20, {(3S)-1-[5-(Cyclohexylcarbamoyl)-4-(propylthio)pyrimidin-2-yl]piperidin-3-yl}acetic acid] has an inhibition at 30 µM of 97.6%.
Compound `C[C@@H]1CN(c2ncc(C(=O)N[C@H]3C4CC5CC3C[C@](O)(C5)C4)c(C3CCCC3)n2)C[C@H](C)N1` [Example 134, 4-cyclopentyl-2-[(3S,5R)-3,5-dimethylpiperazin-1-yl]-N-[(2r,5s)-5-hydroxyadamantan-2-yl]pyrimidine-5-carboxamide] has an inhibition at 30 µM of 94.1%.
In the case of `CC(C)Nc1ncc(C(=O)N[C@H]2C3CC4CC2C[C@@](O)(C4)C3)c(C2CCCO2)n1` (some centres unmarked) [Example 159, N-[(2r,5s)-5-hydroxyadamantan-2-yl]-4-(oxolan-2-yl)-2-(propan-2-ylamino)pyrimidine-5-carboxamide], the inhibition at 30 µM is reported as 98.2%.
Work on `O=C(N[C@H]1C2CC3CC1C[C@@](O)(C3)C2)c1cnc(OC2COC2)nc1C1CCCC1` [Example 113, 4-cyclopentyl-N-[(2r,5s)-5-hydroxyadamantan-2-yl]-2-(oxetan-3-yloxy)pyrimidine-5-carboxamide] yielded an inhibition at 30 µM of 98.4%.
`CNc1ncc(C(=O)N[C@H]2C3CC4CC2C[C@@](O)(C4)C3)c(C2CCC2)n1` [Example 91, 4-cyclobutyl-N-[(2r,5s)-5-hydroxyadamantan-2-yl]-2-(methylamino)pyrimidine-5-carboxamide] gave an inhibition at 30 µM of 95.7%.
`COc1nc(NC2CCC2)ncc1C(=O)N[C@H]1C2CC3CC1C[C@@](O)(C3)C2` [Example 207, 2-(cyclobutylamino)-N-[(2r,5s)-5-hydroxytricyclo[3.3.1.13,7]dec-2-yl]-4-methoxypyrimidine-5-carboxamide] was tested, and the inhibition at 30 µM was 93%.
`CC(C)Oc1nc(OC2CCC2)ncc1C(=O)N[C@H]1C2CC3CC1C[C@@](O)(C3)C2` [Example 218, 2-(cyclobutyloxy)-N-[(2r,5s)-5-hydroxytricyclo[3.3.1.13,7]dec-2-yl]-4-(1-methylethoxy)pyrimidine-5-carboxamide] gave an inhibition at 30 µM of 96%.
Compound `O=C(N[C@H]1C2CC3CC1C[C@@](O)(C3)C2)c1cnc(N2CCCS(=O)(=O)CC2)nc1C1CC1` [Example 45, 4-Cyclopropyl-2-(1,1-dioxo-1,4-thiazepan-4-yl)-N-[(2r,5s)-5-hydroxyadamantan-2-yl]pyrimidine-5-carboxamide] has an inhibition at 30 µM of 98.5%.
Work on `Nc1ncc(C(=O)N[C@H]2C3CC4CC2C[C@@](O)(C4)C3)c(C2CC2)n1` [Example 49, 2-Amino-4-cyclopropyl-N-[(2r,5s)-5-hydroxyadamantan-2-yl]pyrimidine-5-carboxamide] yielded an inhibition at 30 µM of 99.3%.
`O=C(N[C@H]1C2CC3CC1C[C@@](O)(C3)C2)c1cnc(C2CC2)nc1C1CCCC1` [Example 149, 4-Cyclopentyl-2-cyclopropyl-N-[(2r,5s)-5-hydroxyadamantan-2-yl]pyrimidine-5-carboxamide] gave an inhibition at 30 µM of 92%.
`O=C(N[C@H]1C2CC3CC1C[C@@](O)(C3)C2)c1cnc(N[C@H]2CCOC2)nc1C1CCCC1` [Example 144, 4-cyclopentyl-N-[(2r,5s)-5-hydroxyadamantan-2-yl]-2-[[(3S)-oxolan-3-yl]amino]pyrimidine-5-carboxamide] gave an inhibition at 30 µM of 98.8%.
In the case of `NC1(c2ncc(C(=O)N[C@H]3C4CC5CC3C[C@@](O)(C5)C4)c(C3CCCC3)n2)CC1` [Example 151, 2-(1-Aminocyclopropyl)-4-cyclopentyl-N-[(2r,5s)-5-hydroxyadamantan-2-yl]pyrimidine-5-carboxamide], the inhibition at 30 µM is reported as 101%.
With `COCc1nc(N2C[C@@H](C)O[C@@H](C)C2)ncc1C(=O)N[C@H]1C2CC3CC1C[C@@](O)(C3)C2` [Example 219, 2-[(2S,6R)-2,6-Dimethylmorpholin-4-yl]-N-[(2r,5s)-5-hydroxyadamantan-2-yl]-4-(methoxymethyl)pyrimidine-5-carboxamide] the inhibition at 30 µM was 98.6%.
`CCOc1nc(NC2CC2)ncc1C(=O)N[C@H]1C2CC3CC1C[C@@](O)(C3)C2` [Example 210, 2-(cyclopropylamino)-4-ethoxy-N-[(2r,5s)-5-hydroxytricyclo[3.3.1.13,7]dec-2-yl]pyrimidine-5-carboxamide] gave an inhibition at 30 µM of 97.2%.
`O=C(N[C@H]1C2CC3CC1C[C@@](O)(C3)C2)c1cnc(NC2CC2)nc1[C@@H]1CCCO1` [Example 180, 2-(cyclopropylamino)-N-[(2r,5s)-5-hydroxyadamantan-2-yl]-4-[(2S)-oxolan-2-yl]pyrimidine-5-carboxamide] was tested, and the inhibition at 30 µM was 98.8%.
`COCCN1CCN(c2ncc(C(=O)N[C@H]3C4CC5CC3C[C@@](O)(C5)C4)c(C3CC3)n2)CC1` [Example 55, 4-cyclopropyl-N-[(2r,5s)-5-hydroxyadamantan-2-yl]-2-[4-(2-methoxyethyl)piperazin-1-yl]pyrimidine-5-carboxamide] gave an inhibition at 30 µM of 96.9%.
In the case of `CCCSc1nc(N2CCN(C(=O)N(C)C)CC2)ncc1C(=O)NC1C2CC3CC(C2)CC1C3` (centres unmarked) [Example 29, N-(2-adamantyl)-2-[4-(dimethylcarbamoyl)piperazin-1-yl]-4-propylsulfanyl-pyrimidine-5-carboxamide], the inhibition at 30 µM is reported as 100%.
Compound `CN(C)c1ncc(C(=O)N[C@H]2C3CC4CC2C[C@@](O)(C4)C3)c(C2CC2)n1` [Example 61, 4-cyclopropyl-2-(dimethylamino)-N-[(2r,5s)-5-hydroxyadamantan-2-yl]pyrimidine-5-carboxamide] has an inhibition at 30 µM of 105%.
For `O=C(N[C@H]1C2CC3CC1C[C@@](O)(C3)C2)c1cnc(NC2CC2)nc1C1CC(F)(F)C1` [Example 155, 2-(cyclopropylamino)-4-(3,3-difluorocyclobutyl)-N-[(2r,5s)-5-hydroxyadamantan-2-yl]pyrimidine-5-carboxamide], the inhibition at 30 µM was 92.6%.
`O=C(N[C@H]1C2CC3CC1C[C@@](O)(C3)C2)c1cnc(OC2CCCC2)nc1C1CC1` [Example 77, 2-(cyclopentyloxy)-4-cyclopropyl-N-[(2r,5s)-5-hydroxyadamantan-2-yl]pyrimidine-5-carboxamide] gave an inhibition at 30 µM of 90.9%.
Work on `CCOc1nc(OC2CCC2)ncc1C(=O)N[C@H]1C2CC3CC1C[C@@](O)(C3)C2` [Example 213, 2-(cyclobutyloxy)-4-ethoxy-N-[(2r,5s)-5-hydroxytricyclo[3.3.1.13,7]dec-2-yl]pyrimidine-5-carboxamide] yielded an inhibition at 30 µM of 107%.
For `COc1ncc(C(=O)N[C@H]2C3CC4CC2C[C@@](O)(C4)C3)c(C2CC2)n1` [Example 33, 4-Cyclopropyl-N-[(2r,5s)-5-hydroxyadamantan-2-yl]-2-methoxypyrimidine-5-carboxamide], the inhibition at 30 µM was 97.5%.
`O=C(N[C@H]1C2CC3CC1C[C@@](O)(C3)C2)c1cnc(N2CCOC(CO)C2)nc1C1CCCC1` (some centres unmarked) [Example 145, 4-cyclopentyl-N-[(2r,Ss)-5-hydroxyadamantan-2-yl]-2-[2-(hydroxymethyl)morpholin-4-yl]pyrimidine-5-carboxamide] showed an inhibition at 30 µM of 92.9%.
In the case of `O=C(N[C@H]1C2CC3CC1C[C@@](O)(C3)C2)c1cnc(N2CCSCC2)nc1C1CCCC1` [Example 114, 4-Cyclopentyl-N-[(2s,5r)-5-hydroxyadamantan-2-yl]-2-thiomorpholin-4-ylpyrimidine-5-carboxamide], the inhibition at 30 µM is reported as 106%.
`CC(C)Nc1ncc(C(=O)N[C@H]2C3CC4CC2C[C@@](O)(C4)C3)c(C2CCC2)n1` [Example 94, 4-cyclobutyl-N-[(2r,5s)-5-hydroxyadamantan-2-yl]-2-(isopropylamino)pyrimidine-5-carboxamide] showed an inhibition at 30 µM of 103%.
In the case of `O=C(N[C@H]1C2CC3CC1C[C@@](O)(C3)C2)c1cnc(NC2CCOCC2)nc1C1CCC1` [Example 96, 4-cyclobutyl-N-[(2r,5s)-5-hydroxyadamantan-2-yl]-2-(tetrahydro-2H-pyran-4-ylamino)pyrimidine-5-carboxamide], the inhibition at 30 µM is reported as 97.4%.
`CC(C)Nc1ncc(C(=O)N[C@H]2C3CC4CC2C[C@@](O)(C4)C3)c([C@@H]2CCCO2)n1` [Example 179, N-[(2r,5s)-5-hydroxyadamantan-2-yl]-4-[(2S)-oxolan-2-yl]-2-(propan-2-ylamino)pyrimidine-5-carboxamide] was tested, and the inhibition at 30 µM was 95.1%.
`O=C(N[C@H]1C2CC3CC1C[C@@](O)(C3)C2)c1cnc(OC2CCCC2)nc1C1CCC1` [Example 106, 4-cyclobutyl-2-(cyclopentyloxy)-N-[(2r,5s)-5-hydroxyadamantan-2-yl]pyrimidine-5-carboxamide] gave an inhibition at 30 µM of 101%.
`O=C(N[C@H]1C2CC3CC1C[C@@](O)(C3)C2)c1cnc(N2CCOC(CO)C2)nc1C1CC1` (some centres unmarked) [Example 59, 4-cyclopropyl-N-[(2r,5s)-5-hydroxyadamantan-2-yl]-2-[2-(hydroxymethyl)morpholin-4-yl]pyrimidine-5-carboxamide] showed an inhibition at 30 µM of 95.6%.
Compound `CC(=O)N1CCN(c2ncc(C(=O)N3CCC(c4cccnc4)C3)c(C3CC3)n2)CC1` (centres unmarked) [Example 80, 1-(4-(4-cyclopropyl-5-(3-(pyridin-3-yl)pyrrolidine-1-carbonyl)pyrimidin-2-yl)piperazin-1-yl)ethanone] has an inhibition at 30 µM of 99.2%.
`CC(C)Nc1ncc(C(=O)N[C@H]2C3CC4CC2C[C@@](O)(C4)C3)c(C2CCCC2)n1` [Example 121, 4-cyclopentyl-N-[(2r,5s)-5-hydroxyadamantan-2-yl]-2-(propan-2-ylamino)pyrimidine-5-carboxamide] was tested, and the inhibition at 30 µM was 104%.
`C[C@@H]1CN(c2ncc(C(=O)N[C@H]3C4CC5CC3C[C@@](O)(C5)C4)c(C3CC3)n2)C[C@H](C)N1` [Example 62, 4-cyclopropyl-2-[(3R,5S)-3,5-dimethylpiperazin-1-yl]-N-[(2r,5s)-5-hydroxyadamantan-2-yl]pyrimidine-5-carboxamide] showed an inhibition at 30 µM of 99.9%.

Same assay, conditions: recombinant N terminal 6-His tagged full length human 11βHSD1; cortisone 160 nM; 25 minutes at 37° C.
`CCCSc1nc(N2CCC[C@@H](CC(=O)O)C2)ncc1C(=O)NC1CCCCC1` [Example 20, {(3S)-1-[5-(Cyclohexylcarbamoyl)-4-(propylthio)pyrimidin-2-yl]piperidin-3-yl}acetic acid] showed an IC50 of 2 nM.
`CCCSc1nc(N2CCN(C(=O)N(C)C)CC2)ncc1C(=O)NC1C2CC3CC(C2)CC1C3` (centres unmarked) [Example 29, N-(2-adamantyl)-2-[4-(dimethylcarbamoyl)piperazin-1-yl]-4-propylsulfanyl-pyrimidine-5-carboxamide] gave an IC50 of 13 nM.
Compound `COc1ncc(C(=O)N[C@H]2C3CC4CC2C[C@@](O)(C4)C3)c(C2CC2)n1` [Example 33, 4-Cyclopropyl-N-[(2r,5s)-5-hydroxyadamantan-2-yl]-2-methoxypyrimidine-5-carboxamide] has an IC50 of 33 nM.
